According to patent US20260191838A1, “COMBINATIONS COMPRISING A MENIN-MLL INHIBITOR AND A BCL-2 INHIBITOR” (JANSSEN PHARMACEUTICA NV, priority 2022, published 2026):

Tested on: MOLM-13 (KMT2A-r) cell line
Experiment: In vitro proliferation (spheroid confluence, Incucyte), Compound 51 with venetoclax and optionally azacitidine, MOLM-13
Type: cell-based, human
Protocol: 3b) In Vitro Proliferation—Menin-MLL Inhibitor in Combination with Venetoclax and Optionally, Azacitidine
The effect of Compound 51, alone or in combination with venetoclax, or in combination with venetoclax+azacitidine, was determined in proliferation assays using the MOLM-13 (KMT2A-r) cell line.
MOLM-13 cells were seeded in 96-well, round-bottom, ultra-low attachment plates. The following dilution series were used: Compound 51 at an initial concentration of 1 μM, followed by a 5- or 6-point, 4-fold serial dilution series; azacitidine at an initial concentration of 25 μM, followed by a 6-point, 5-fold serial dilution series; and venetoclax at an initial concentration of 3 μM, followed by a 5- or 6-point, 5-fold serial dilution series. In the combination treatments that included venetoclax, venetoclax was added to the cells 4 days after treatment with Compound 51 and/or azacitidine was initiated. The triplet combination of Compound 51, in a checkerboard titration design with azacitidine+venetoclax, was tested at the same concentrations.
The optimal cell seeding number (500 cells/well) was chosen based on growth curves to ensure linear growth throughout the entire experiment. The DMSO content was normalized to 0.3% and cells were incubated for 8 days at 37° C., 5% CO2. Spheroid-like growth was monitored in real-time by non-invasive live-cell imaging using the 4× objective of the Incucyte ZOOM live cell imaging system (Essen BioScience), and images were acquired on Day 8. The percent confluence, as a measure of spheroid size, was determined using an integrated analysis tool that is part of the Incucyte ZOOM software “IncuCyte ZOOM 2016B” (Essen BioScience). The percent confluence from the DMSO well was used as baseline response. Each experiment contained 4 replicates of each condition and the experiment was performed 3 times. Potential combination effects were analyzed for synergy using an R-based Biochemically Intuitive Generalized Loewe (BIGL) model implemented with a highest single agent (HSA) null model (Van der Borght 2017).

Which results are given for `CC(=O)N1CCC(CN2CC[C@@H](Cc3cn(-c4ccc(F)cc4C(=O)N(C)C(C)C)c4cncc(C)c34)C2)CC1` [Compound 51]?
Effect size (BIGL, HSA null model) (doublet: Compound 51 0.0002 μM, Venetoclax 0.0003 μM): 0.02; Effect size (BIGL, HSA null model) (doublet: Compound 51 0.0002 μM, Venetoclax 0.0016 μM): 0.01; Effect size (BIGL, HSA null model) (doublet: Compound 51 0.0002 μM, Venetoclax 0.008 μM): 0.05; Effect size (BIGL, HSA null model) (doublet: Compound 51 0.0002 μM, Venetoclax 0.04 μM): 0.02; Effect size (BIGL, HSA null model) (doublet: Compound 51 0.0002 μM, Venetoclax 0.2 μM): 0.08; Effect size (BIGL, HSA null model) (doublet: Compound 51 0.0002 μM, Venetoclax 1 μM): −0.05; Effect size (BIGL, HSA null model) (doublet: Compound 51 0.001 μM, Venetoclax 0.0003 μM): 0.01; Effect size (BIGL, HSA null model) (doublet: Compound 51 0.001 μM, Venetoclax 0.0016 μM): 0.03; Effect size (BIGL, HSA null model) (doublet: Compound 51 0.001 μM, Venetoclax 0.008 μM): 0.02; Effect size (BIGL, HSA null model) (doublet: Compound 51 0.001 μM, Venetoclax 0.04 μM): 0.00; Effect size (BIGL, HSA null model) (doublet: Compound 51 0.001 μM, Venetoclax 0.2 μM): 0.05; Effect size (BIGL, HSA null model) (doublet: Compound 51 0.001 μM, Venetoclax 1 μM): −0.05; Effect size (BIGL, HSA null model) (doublet: Compound 51 0.004 μM, Venetoclax 0.0003 μM): 0.05; Effect size (BIGL, HSA null model) (doublet: Compound 51 0.004 μM, Venetoclax 0.0016 μM): 0.04; Effect size (BIGL, HSA null model) (doublet: Compound 51 0.004 μM, Venetoclax 0.008 μM): 0.04; Effect size (BIGL, HSA null model) (doublet: Compound 51 0.004 μM, Venetoclax 0.04 μM): −0.03; Effect size (BIGL, HSA null model) (doublet: Compound 51 0.004 μM, Venetoclax 0.2 μM): 0.40; Effect size (BIGL, HSA null model) (doublet: Compound 51 0.004 μM, Venetoclax 1 μM): −0.09; Effect size (BIGL, HSA null model) (doublet: Compound 51 0.0156 μM, Venetoclax 0.0003 μM): −0.04; Effect size (BIGL, HSA null model) (doublet: Compound 51 0.0156 μM, Venetoclax 0.008 μM): −0.27; Effect size (BIGL, HSA null model) (doublet: Compound 51 0.0156 μM, Venetoclax 0.04 μM): −0.42; Effect size (BIGL, HSA null model) (doublet: Compound 51 0.0156 μM, Venetoclax 0.2 μM): −0.24; Effect size (BIGL, HSA null model) (doublet: Compound 51 0.0156 μM, Venetoclax 1 μM): −0.18; Effect size (BIGL, HSA null model) (doublet: Compound 51 0.0625 μM, Venetoclax 0.0003 μM): −0.01; Effect size (BIGL, HSA null model) (doublet: Compound 51 0.0625 μM, Venetoclax 0.0016 μM): −0.04; Effect size (BIGL, HSA null model) (doublet: Compound 51 0.0625 μM, Venetoclax 0.008 μM): −0.12; Effect size (BIGL, HSA null model) (doublet: Compound 51 0.0625 μM, Venetoclax 0.04 μM): −0.15; Effect size (BIGL, HSA null model) (doublet: Compound 51 0.0625 μM, Venetoclax 0.2 μM): −0.15; Effect size (BIGL, HSA null model) (doublet: Compound 51 0.0625 μM, Venetoclax 1 μM): −0.16; Effect size (BIGL, HSA null model) (doublet: Compound 51 0.25 μM, Venetoclax 0.0003 μM): 0.00; Effect size (BIGL, HSA null model) (doublet: Compound 51 0.25 μM, Venetoclax 0.0016 μM): 0.11; Effect size (BIGL, HSA null model) (doublet: Compound 51 0.25 μM, Venetoclax 0.008 μM): −0.05; Effect size (BIGL, HSA null model) (doublet: Compound 51 0.25 μM, Venetoclax 0.04 μM): −0.07; Effect size (BIGL, HSA null model) (doublet: Compound 51 0.25 μM, Venetoclax 0.2 μM): −0.13; Effect size (BIGL, HSA null model) (doublet: Compound 51 0.25 μM, Venetoclax 1 μM): −0.07; Effect size (BIGL, HSA null model) (doublet: Compound 51 1 μM, Venetoclax 0.0003 μM): −0.02; Effect size (BIGL, HSA null model) (doublet: Compound 51 1 μM, Venetoclax 0.0016 μM): −0.03; Effect size (BIGL, HSA null model) (doublet: Compound 51 1 μM, Venetoclax 0.008 μM): −0.07; Effect size (BIGL, HSA null model) (doublet: Compound 51 1 μM, Venetoclax 0.04 μM): −0.08; Effect size (BIGL, HSA null model) (doublet: Compound 51 1 μM, Venetoclax 0.2 μM): −0.07; Effect size (BIGL, HSA null model) (doublet: Compound 51 1 μM, Venetoclax 1 μM): −0.06; Effect size (BIGL, HSA null model) (triplet: Compound 51 0.001 μM, Venetoclax 0.0001 μM, Azacitidine 0.008 μM): 0.03; Effect size (BIGL, HSA null model) (triplet: Compound 51 0.001 μM, Venetoclax 0.0002 μM, Azacitidine 0.0016 μM): 0.03; Effect size (BIGL, HSA null model) (triplet: Compound 51 0.001 μM, Venetoclax 0.005 μM, Azacitidine 0.04 μM): 0.05; Effect size (BIGL, HSA null model) (triplet: Compound 51 0.001 μM, Venetoclax 0.024 μM, Azacitidine 0.2 μM): −0.02; Effect size (BIGL, HSA null model) (triplet: Compound 51 0.001 μM, Venetoclax 0.12 μM, Azacitidine 1 μM): 0.01; Effect size (BIGL, HSA null model) (triplet: Compound 51 0.001 μM, Venetoclax 0.6 μM, Azacitidine 5 μM): −0.03; Effect size (BIGL, HSA null model) (triplet: Compound 51 0.001 μM, Venetoclax 3 μM, Azacitidine 25 μM): 0.01; Effect size (BIGL, HSA null model) (triplet: Compound 51 0.004 μM, Venetoclax 0.0001 μM, Azacitidine 0.008 μM): 0.03; Effect size (BIGL, HSA null model) (triplet: Compound 51 0.004 μM, Venetoclax 0.0002 μM, Azacitidine 0.0016 μM): 0.04; Effect size (BIGL, HSA null model) (triplet: Compound 51 0.004 μM, Venetoclax 0.005 μM, Azacitidine 0.04 μM): 0.04; Effect size (BIGL, HSA null model) (triplet: Compound 51 0.004 μM, Venetoclax 0.024 μM, Azacitidine 0.2 μM): −0.05; Effect size (BIGL, HSA null model) (triplet: Compound 51 0.004 μM, Venetoclax 0.12 μM, Azacitidine 1 μM): −0.08; Effect size (BIGL, HSA null model) (triplet: Compound 51 0.004 μM, Venetoclax 0.6 μM, Azacitidine 5 μM): −0.03; Effect size (BIGL, HSA null model) (triplet: Compound 51 0.004 μM, Venetoclax 3 μM, Azacitidine 25 μM): 0.01; Effect size (BIGL, HSA null model) (triplet: Compound 51 0.0625 μM, Venetoclax 0.0002 μM, Azacitidine 0.0016 μM): 0.02; Effect size (BIGL, HSA null model) (triplet: Compound 51 0.25 μM, Venetoclax 0.0001 μM, Azacitidine 0.008 μM): −0.00; Effect size (BIGL, HSA null model) (triplet: Compound 51 0.25 μM, Venetoclax 0.0002 μM, Azacitidine 0.0016 μM): 0.00; Effect size (BIGL, HSA null model) (triplet: Compound 51 0.25 μM, Venetoclax 0.005 μM, Azacitidine 0.04 μM): 0.11; Effect size (BIGL, HSA null model) (triplet: Compound 51 0.25 μM, Venetoclax 0.024 μM, Azacitidine 0.2 μM): −0.07; Effect size (BIGL, HSA null model) (triplet: Compound 51 0.25 μM, Venetoclax 0.12 μM, Azacitidine 1 μM): −0.14; Effect size (BIGL, HSA null model) (triplet: Compound 51 0.25 μM, Venetoclax 0.6 μM, Azacitidine 5 μM): −0.06; Effect size (BIGL, HSA null model) (triplet: Compound 51 0.25 μM, Venetoclax 3 μM, Azacitidine 25 μM): 0.01; Effect size (BIGL, HSA null model) (triplet: Compound 51 1 μM, Venetoclax 0.0001 μM, Azacitidine 0.008 μM): −0.02; Effect size (BIGL, HSA null model) (triplet: Compound 51 1 μM, Venetoclax 0.0002 μM, Azacitidine 0.0016 μM): −0.01; Effect size (BIGL, HSA null model) (triplet: Compound 51 1 μM, Venetoclax 0.005 μM, Azacitidine 0.04 μM): −0.04; Effect size (BIGL, HSA null model) (triplet: Compound 51 1 μM, Venetoclax 0.024 μM, Azacitidine 0.2 μM): −0.08; Effect size (BIGL, HSA null model) (triplet: Compound 51 1 μM, Venetoclax 0.12 μM, Azacitidine 1 μM): −0.14; Effect size (BIGL, HSA null model) (triplet: Compound 51 1 μM, Venetoclax 0.6 μM, Azacitidine 5 μM): −0.05; Effect size (BIGL, HSA null model) (triplet: Compound 51 1 μM, Venetoclax 3 μM, Azacitidine 25 μM): 0.02
